Data from the NIST ThermoML archive (doi:10.1016/j.jct.2016.08.015).
Numbers after ± are expanded uncertainties.

Assay: xn = mol fraction of the nth substance listed
Conditions: 101.3 kPa, Liquid, Pycnometric method

SMILES	mass density (303.15 K, x2 = 0.75) [kg/m3]	mass density (313.15 K, x2 = 0.75) [kg/m3]	mass density (323.15 K, x2 = 0.75) [kg/m3]	mass density (333.15 K, x2 = 0.75) [kg/m3]	mass density (303.15 K, x1 = 0.75) [kg/m3]	mass density (313.15 K, x1 = 0.75) [kg/m3]	mass density (323.15 K, x1 = 0.75) [kg/m3]	mass density (333.15 K, x1 = 0.75) [kg/m3]
CC[N+](CC)(CC)CC.[Cl-] [tetraethylammonium chloride] + CC(=O)CCC(=O)O	1090.3 ± 1.3	1083.3 ± 1.3	1076.1 ± 1.3	1069.2 ± 1.3	–	–	–	–
CCCC[N+](CCCC)(CCCC)CCCC.[Cl-] [tetrabutylammonium chloride] + CC(=O)CCC(=O)O	1027.3 ± 1.2	1020.3 ± 1.3	1013.1 ± 1.3	1006 ± 1.3	–	–	–	–
CC(=O)OCC[N+](C)(C)C.[Cl-] [acetylcholine chloride] + CC(=O)CCC(=O)O	1136.9 ± 1.1	1129.4 ± 1.1	1121.8 ± 1.1	1114.4 ± 1.1	–	–	–	–
CC(=O)CCC(=O)O [4-oxopentanoic acid] + CC[N+](CC)(CC)CC.[Br-]	–	–	–	–	1169.9 ± 1.1	1162.2 ± 1.1	1154.6 ± 1.1	1147.4 ± 1.2
CC(=O)CCC(=O)O [4-oxopentanoic acid] + CCCC[N+](CCCC)(CCCC)CCCC.[Br-]	–	–	–	–	1093.5 ± 1.1	1086.2 ± 1.1	1078.8 ± 1.1	1072.1 ± 1.1
